We go through one compound from article PMC8113213, “Physiologically based kinetic modelling based prediction of in vivo rat and human acetylcholinesterase (AChE) inhibition upon exposure to diazinon” (Archives of Toxicology, 2021).

One data set has as its system brain and RBC AChE. Conditions: cited from earlier work.
Data set [1] concerns the target T1, recombinant human AChE (rhAChE) (Homo sapiens, UniProt P22303).
T1 construct: purchased Sigma-Aldrich Co
In words: biochemical. The protocol: However, since recombinant rat AChE was not commercially available, extracted rat RBC AChE was used. […] The concentration of DTNB was calculated based on the concentration ratio (ATC/DTNB) of 2 (Stern et al. [2014]). […] To initiate the inhibition reaction, 1 µl rhAChE or rat AChE (final concentration 0.6 mU/ml) was added to the incubation. The total incubation volume was 50 µl. After 15 min incubation at 37℃, 150 µl reaction reagents (mixture of ATC at a final concentration of 150 µM and DTNB at a final concentration of 75 µM) were added into each well. The final total volume of each well was 200 µl. Subsequently, the 96-well plate was measured continuously for 10 min at absorbance 412 nm at 37℃ to quantify the remaining AChE activity.
The rhAChE and rat AChE activity were expressed as the remaining AChE activity relative to solvent control (100% activity) and positive control (0% activity) based on Eq. (2):2 AChEactivity\%=A412t10-t0testcompound-A412t10-t0positivecontrol/A412t10-t0solventcontrol-A412t10-t0positivecontrol×100\% , where the A412(t10 − t0)test compound is the change in the absorbance at A412 nm between 0 and 10 min for the test compound, the A412(t10 − t0)positive control is the change in the absorbance at A412 nm between 0 and 10 min for the CPO sample, and the A412(t10 − t0)solvent control is the change in the absorbance at A412nm between 0 and 10 min for the 0.2% ethanol sample.

The conditions of data set [2]: rat, ref Poet et al. 2004, cited from earlier work.

T1 sequence (P22303 32-614): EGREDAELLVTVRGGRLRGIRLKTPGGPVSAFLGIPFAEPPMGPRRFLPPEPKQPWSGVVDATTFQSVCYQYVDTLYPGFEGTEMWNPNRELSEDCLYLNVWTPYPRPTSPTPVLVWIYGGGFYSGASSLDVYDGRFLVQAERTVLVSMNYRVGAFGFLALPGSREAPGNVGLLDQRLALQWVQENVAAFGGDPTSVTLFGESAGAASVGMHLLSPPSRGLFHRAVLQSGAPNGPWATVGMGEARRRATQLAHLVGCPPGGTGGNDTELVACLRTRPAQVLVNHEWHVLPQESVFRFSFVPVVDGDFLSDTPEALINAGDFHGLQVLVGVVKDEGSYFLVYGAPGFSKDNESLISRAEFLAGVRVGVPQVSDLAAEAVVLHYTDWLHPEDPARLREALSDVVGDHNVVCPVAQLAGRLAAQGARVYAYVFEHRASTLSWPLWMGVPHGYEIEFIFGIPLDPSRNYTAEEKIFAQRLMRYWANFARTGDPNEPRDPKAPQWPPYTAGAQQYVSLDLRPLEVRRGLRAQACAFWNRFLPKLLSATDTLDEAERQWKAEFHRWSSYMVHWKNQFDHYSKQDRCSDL

In the case of `CCOP(=S)(OCC)Oc1cc(C)nc(C(C)C)n1` [DZN, O,O-diethyl O-2-isopropyl-6-methylpyrimidin-4-yl phosphorothioate], the “overall NOAEL from three rat studies” value with brain and RBC AChE (EFSA, ref EFSA 2006) was 2.5 mg/kg bw. In the data set with brain and RBC AChE (JMPR, ref JMPR 2016), the “LOAEL, inhibition of brain and RBC AChE activity in female rat” value was 25 mg/kg bw; the “NOAEL, acute (neuro)toxicity study in rats” value is 2.5 mg/kg bw. Further, the “Reported NOAEL from EFSA and JMPR (adult rat)” value in the data set on brain and RBC AChE (ref EFSA 2006, JMPR 2016) is reported as 2.5 mg/kg bw. The “lower AChE inhibitory potency of DZN than of DZO” value in data set [1] is “around 300 fold”. The IC50 in data set [1] (rhAChE, 15 min incubation at 37℃, read-out: IC50 for inhibition of AChE activity) turned out to be 14.3 µM. Also, in data set [2] (oral), the “fractional absorption (fa)” value is 0.8. Further, in data set [2], the “first-order rate constant for absorption from the intestine into the liver (KaI)” value is 0.59 h⁻¹, the “first-order rate constant for absorption from the stomach into the liver (KaS)” value is 0.1 h⁻¹ and the “first-order rate constant for transfer from the stomach into the intestine (KsI)” value is 0.48 h⁻¹.

Usually IC50 stands for the concentration that inhibits the measured activity by half.
